Experiments:
[1] = system: Magnaporthe grisea (Pyricularia oryzae); test: whole plant or invertebrate; type: in vivo, Magnaporthe grisea (Pyricularia oryzae) on M201 rice plants; details: for pest or weed control at 200 ppm: Pyricularia oryzae, 144 h, read-out: % Control RB
fungal inoculum = test: organism not typed; type: cell-based

## CC#CC(C)N1N=C(c2ccc(Cl)cc2)CCC1=O (stereo not drawn) [Compound 22]
[1]
  pest or weed control at 200 ppm: 75%
Fungal inoculum; read-out: % growth inhibition
  inhibition at 100 ppm: 99.7%

## CC#CCN1N=C(c2ccc(Cl)c(Cl)c2)CCC1=O [Compound 23]
[1]
  pest or weed control at 200 ppm: 50%
Fungal inoculum; read-out: % growth inhibition
  inhibition at 5 ppm: 100%

## O=C1CCC(c2ccc(Cl)cc2)=NN1CC1CC1 [Compound 25]
[1]
  pest or weed control at 200 ppm: 50%
Fungal inoculum; read-out: % growth inhibition
  inhibition at 50 ppm: 100%

## CC#CCN1N=C(c2ccc(Cl)cc2)C(C)CC1=O (stereo not drawn) [Compound 26, 6-(4-chlorophenyl)-5-methyl-2-(2'-butynyl)-4,5-dihydropyridazinone]
[1]
  pest or weed control at 200 ppm: 95%
Fungal inoculum; read-out: % growth inhibition
  inhibition at 50 ppm: 96.3%

## CC#CCN1N=C(c2ccc(Cl)cc2)CC(C)C1=O (stereo not drawn) [Compound 27]
[1]
  pest or weed control at 200 ppm: 0%
Fungal inoculum; read-out: % growth inhibition
  inhibition at 50 ppm: 100%

## CCC#CCN1N=C(c2ccc(Cl)c(Cl)c2)CCC1=O [Compound 28, 6-(3,4-dichlorophenyl)-2-(2'-pentynyl)-4,5-dihydropyridazinone]
[1]
  pest or weed control at 200 ppm: 95%
Fungal inoculum; read-out: % growth inhibition
  inhibition at 1 ppm: 100%

## CCCC#CCN1N=C(c2ccc(Cl)cc2)CCC1=O [Compound 29]
[1]
  pest or weed control at 200 ppm: 95%
Fungal inoculum; read-out: % growth inhibition
  inhibition at 1 ppm: 86.1%

## CC#CCN1N=C(c2ccc(Br)cc2)CCC1=O [Compound 31]
[1]
  pest or weed control at 200 ppm: 90%
Fungal inoculum; read-out: % growth inhibition
  inhibition at 5 ppm: 92.4%

## CC(C)=CCN1N=C(c2ccc(Cl)cc2)CCC1=O [Compound 32]
[1]
  pest or weed control at 200 ppm: 0%
Fungal inoculum; read-out: % growth inhibition
  inhibition at 100 ppm: 100%

## CC#CCN1N=C(c2ccc(Oc3ccccc3)cc2)CCC1=O [Compound 33]
[1]
  pest or weed control at 200 ppm: 0%
Fungal inoculum; read-out: % growth inhibition
  inhibition at 100 ppm: 27.6%

## N#CCN1N=C(c2ccc(Cl)cc2)CCC1=O [Compound 35]
[1]
  pest or weed control at 200 ppm: 75%
Fungal inoculum; read-out: % growth inhibition
  inhibition at 50 ppm: 85%

## O=C1CCC(c2ccc(Cl)cc2)=NN1Cc1cccs1 [Compound 36, 6-(4-chlorophenyl)-2-(2'-thienylmethyl)-4,5-dihydropyridazinone]
[1]
  pest or weed control at 200 ppm: 90%
Fungal inoculum; read-out: % growth inhibition
  inhibition at 50 ppm: 100%

## CC#CCN1N=C(c2cccc(Cl)c2)CCC1=O [Compound 37, 6-(3-chlorophenyl)-2-(2'-butynyl)-4,5-dihydropyridazinone]
[1]
  pest or weed control at 200 ppm: 90%
Fungal inoculum; read-out: % growth inhibition
  inhibition at 100 ppm: 100%

## CC#CCN1N=C(c2cc(Cl)cc(Cl)c2)CCC1=O [Compound 38]
[1]
  pest or weed control at 200 ppm: 75%
Fungal inoculum; read-out: % growth inhibition
  inhibition at 100 ppm: 75.2%

## CC#CCN1N=C(c2ccc(Cl)c([N+](=O)[O-])c2)CCC1=O [Compound 39]
[1]
  pest or weed control at 200 ppm: 0%
Fungal inoculum; read-out: % growth inhibition
  inhibition at 50 ppm: 94.6%

## CCC#CCN1N=C(c2ccc(Cl)c([N+](=O)[O-])c2)CCC1=O [Compound 40]
[1]
  pest or weed control at 200 ppm: 0%
Fungal inoculum; read-out: % growth inhibition
  inhibition at 5 ppm: 95.7%

## CCC#CCN1N=C(c2ccc(C(F)(F)F)cc2)CCC1=O [Compound 41]
[1]
  pest or weed control at 200 ppm: 0%
Fungal inoculum; read-out: % growth inhibition
  inhibition at 10 ppm: 89.2%

## CCC#CCN1N=C(c2cc(Cl)c(C)c(Cl)c2Cl)CCC1=O [Compound 43]
[1]
  pest or weed control at 200 ppm: 0%
Fungal inoculum; read-out: % growth inhibition
  inhibition at 10 ppm: 22.3%

## C=C(C)C#CCN1N=C(c2ccc(Cl)cc2)CCC1=O [Compound 45]
[1]
  pest or weed control at 200 ppm: 0%
Fungal inoculum; read-out: % growth inhibition
  inhibition at 10 ppm: 100%

## CC(C)(C)C#CCN1N=C(c2ccc(Cl)cc2)CCC1=O [Compound 46]
[1]
  pest or weed control at 200 ppm: 0%
Fungal inoculum; read-out: % growth inhibition
  inhibition at 100 ppm: 100%

## CC(O)C#CCN1N=C(c2ccc(Cl)cc2)CCC1=O (stereo not drawn) [Compound 47, 6-(4-chlorophenyl)-2-(4'hydroxy-2'-pentynyl)-4,5-dihydropyridazinone]
[1]
  pest or weed control at 200 ppm: 0%
Fungal inoculum; read-out: % growth inhibition
  inhibition at 50 ppm: 100%

## COC(C)C#CCN1N=C(c2ccc(Cl)cc2)CCC1=O (stereo not drawn) [Compound 48, 6-(4-chlorophenyl)-2-(4'methoxy-2'-pentynyl)-4,5-dihydropyridazinone]
[1]
  pest or weed control at 200 ppm: 90%
Fungal inoculum; read-out: % growth inhibition
  inhibition at 50 ppm: 100%

## CC(=O)OC(C)C#CCN1N=C(c2ccc(Cl)cc2)CCC1=O (stereo not drawn) [Compound 49, 6-(4-chlorophenyl)-2-(4'acetoxy-2'-pentynyl)-4,5-dihydropyridazinone]
[1]
  pest or weed control at 200 ppm: 90%
Fungal inoculum; read-out: % growth inhibition
  inhibition at 50 ppm: 100%

## O=C1CCC(c2ccc(Cl)cc2)=NN1CC#CCCO [Compound 50]
[1]
  pest or weed control at 200 ppm: 0%
Fungal inoculum; read-out: % growth inhibition
  inhibition at 50 ppm: 100%

## O=C1CCC(c2ccc(Cl)cc2)=NN1CC#CCCF [Compound 51, 6-(4-chlorophenyl)-2-(5'-fluoro-2'-pentynyl)-4,5-dihydropyridazinone]
[1]
  pest or weed control at 200 ppm: 100%
Fungal inoculum; read-out: % growth inhibition
  inhibition at 50 ppm: 100%

## C=C=CN1N=C(c2ccc(Cl)cc2)CCC1=O [Compound 52]
[1]
  pest or weed control at 200 ppm: 0%
Fungal inoculum; read-out: % growth inhibition
  inhibition at 50 ppm: 93.7%

## CC(F)C#CCN1N=C(c2ccc(Cl)cc2)CCC1=O (stereo not drawn) [Compound 53]
[1]
  pest or weed control at 200 ppm: 100%
Fungal inoculum; read-out: % growth inhibition
  inhibition at 50 ppm: 100%

## COC(=O)C#CCN1N=C(c2ccc(Cl)cc2)CCC1=O [Compound 55]
[1]
  pest or weed control at 200 ppm: 0%
Fungal inoculum; read-out: % growth inhibition
  inhibition at 50 ppm: 100%

## CCC#CCN1N=C(c2ccc(C(C)(C)C)cc2)CCC1=O [Compound 57]
[1]
  pest or weed control at 200 ppm: 0%
Fungal inoculum; read-out: % growth inhibition
  inhibition at 100 ppm: 95.7%

## CC#CCN1N=C(c2ccc(CC)cc2)CCC1=O [Compound 58]
[1]
  pest or weed control at 200 ppm: 0%
Fungal inoculum; read-out: % growth inhibition
  inhibition at 10 ppm: 39.8%

## CCC#CCN1N=C(c2ccc(CC)cc2)CCC1=O [Compound 59]
[1]
  pest or weed control at 200 ppm: 0%
Fungal inoculum; read-out: % growth inhibition
  inhibition at 10 ppm: 100%

## O=C1CCC(c2ccc(Cl)cc2)=NN1CC#CI [Compound 60]
[1]
  pest or weed control at 200 ppm: 50%
Fungal inoculum; read-out: % growth inhibition
  inhibition at 10 ppm: 100%

## CCC#CCN1N=C(c2ccc(SC)cc2)CCC1=O [Compound 61]
[1]
  pest or weed control at 200 ppm: 90%
Fungal inoculum; read-out: % growth inhibition
  inhibition at 10 ppm: 95.3%

## CCC#CCN1N=C(c2ccc(Cl)c(C)c2)CCC1=O [Compound 62]
[1]
  pest or weed control at 200 ppm: 99%
Fungal inoculum; read-out: % growth inhibition
  inhibition at 1 ppm: 100%

## CC(C)C#CC=CCN1N=C(c2ccc(Cl)cc2)CCC1=O [Compound 70]
[1]
  pest or weed control at 200 ppm: 0%
Fungal inoculum; read-out: % growth inhibition
  inhibition at 5 ppm: 100%

## O=C1CCC(c2ccc(Cl)cc2)=NN1CC#CCBr [Compound 71]
[1]
  pest or weed control at 200 ppm: 0%
Fungal inoculum; read-out: % growth inhibition
  inhibition at 50 ppm: 92.6%

## O=C1CCC(c2ccc(Cl)cc2)=NN1CC#CCCl [Compound 72, 6-(4-chlorophenyl)-2-(4'-chloro-2'-butynyl)-4,5-dihydropyridazinone]
[1]
  pest or weed control at 200 ppm: 90%
Fungal inoculum; read-out: % growth inhibition
  inhibition at 0.5 ppm: 96.2%

## CCC#CCN1N=C(c2ccc(Cl)cc2F)CCC1=O [Compound 73]
[1]
  pest or weed control at 200 ppm: 95%
Fungal inoculum; read-out: % growth inhibition
  inhibition at 50 ppm: 94.4%

## O=C1CCC(c2ccc(Cl)cc2)=NN1CC#CC1CO1 (stereo not drawn) [Compound 77]
[1]
  pest or weed control at 200 ppm: 0%
Fungal inoculum; read-out: % growth inhibition
  inhibition at 10 ppm: 89.2%

## O=C1CCC(c2ccc(Cl)cc2)=NN1CC#CC(F)=C(F)F [Compound 78]
[1]
  pest or weed control at 200 ppm: 0%
Fungal inoculum; read-out: % growth inhibition
  inhibition at 0.5 ppm: 100%

## CCC#CCN1N=C(c2ccc(OC(F)(F)F)c(F)c2)CCC1=O [Compound 92]
[1]
  pest or weed control at 200 ppm: 90%
Fungal inoculum; read-out: % growth inhibition
  inhibition at 1 ppm: 100%

## CCC#CCn1nc(-c2ccc(CC)cc2)ccc1=O [Compound 110]
[1]
  pest or weed control at 200 ppm: 0%
Fungal inoculum; read-out: % growth inhibition
  inhibition at 10 ppm: 100%

## CCC#CCn1nc(-c2ccc(C(C)(C)C)cc2)ccc1=O [Compound 111]
[1]
  pest or weed control at 200 ppm: 0%
Fungal inoculum; read-out: % growth inhibition
  inhibition at 25 ppm: 100%

## CCC#CCn1nc(-c2ccc(Cl)c(Cl)c2)ccc1=O [Compound 112]
[1]
  pest or weed control at 200 ppm: 90%
Fungal inoculum; read-out: % growth inhibition
  inhibition at 10 ppm: 100%

## CCC#CCn1nc(-c2ccc(Cl)c(C)c2)ccc1=O [Compound 113]
[1]
  pest or weed control at 200 ppm: 95%
Fungal inoculum; read-out: % growth inhibition
  inhibition at 10 ppm: 64.3%

## CC#CCn1nc(-c2ccc(Cl)c(C)c2)ccc1=O [Compound 114]
[1]
  pest or weed control at 200 ppm: 50%
Fungal inoculum; read-out: % growth inhibition
  inhibition at 5 ppm: 100%

## CCC#CCn1nc(-c2ccc(Cl)cc2C)ccc1=O [Compound 115]
[1]
  pest or weed control at 200 ppm: 50%
Fungal inoculum; read-out: % growth inhibition
  inhibition at 50 ppm: 93.7%

## CC#CCn1nc(-c2ccc(Cl)cc2C)ccc1=O [Compound 116]
[1]
  pest or weed control at 200 ppm: 0%
Fungal inoculum; read-out: % growth inhibition
  inhibition at 50 ppm: 82.5%

## CCC#CCn1nc(-c2ccc(OCC)cc2)ccc1=O [Compound 117]
[1]
  pest or weed control at 200 ppm: 0%
Fungal inoculum; read-out: % growth inhibition
  inhibition at 200 ppm: 34.7%

## CCC[CH2][Sn]([C]#CCN1N=C(c2ccc(Cl)cc2)CCC1=O)([CH2]CCC)[CH2]CCC [Compound 124, 6-(4-chlorophenyl)-2-(3'-tri-n-butyltin-2'-propynyl)-4,5-dihydropyridazinon]
[1]; 200 ppm, protectant
  % Control RB: 0%
Fungal inoculum
  % growth inhibition: 100.0%

## CC#CCN1N=C(c2cccc3ccccc23)CCC1=O [Compound 134, 6-(1-naphthyl)-2-(2'-pentynyl)-4,5-dihydropyridazinone]
[1]
  pest or weed control at 200 ppm: 0%
Fungal inoculum; read-out: % growth inhibition
  inhibition at 50 ppm: 66.5%

## CCC#CCN1N=C(c2ccc3ccccc3c2)CCC1=O [Compound 136]
[1]
  pest or weed control at 200 ppm: 99%
Fungal inoculum; read-out: % growth inhibition
  inhibition at 1 ppm: 84.6%

## CC#CCN1N=C(c2c(OC)ccc3ccc(OC)cc23)CCC1=O [Compound 138]
[1]
  pest or weed control at 200 ppm: 0%
Fungal inoculum; read-out: % growth inhibition
  inhibition at 100 ppm: 64.6%

## CC#CCN1N=C(c2ccccc2)CCCC1=O [Compound 139, 2-(2-butynyl)-7-phenyl-1,2-diazapin-3-one]
[1]
  pest or weed control at 200 ppm: 0%
Fungal inoculum; read-out: % growth inhibition
  inhibition at 100 ppm: 65%

## CC#CCN1N=C(c2cccs2)CCC1=O [Compound 140]
[1]
  pest or weed control at 200 ppm: 75%
Fungal inoculum; read-out: % growth inhibition
  inhibition at 100 ppm: 37.8%

## CC#CCN1N=C(c2ccc3ccc4cccc5ccc2c3c45)CCC1=O [Compound 141]
[1]
  pest or weed control at 200 ppm: 0%
Fungal inoculum; read-out: % growth inhibition
  inhibition at 100 ppm: 23.9%

## CCC#CCN1N=C2c3ccccc3CC2CC1=O (stereo not drawn) [Compound 142]
[1]
  pest or weed control at 200 ppm: 50%
Fungal inoculum; read-out: % growth inhibition
  inhibition at 50 ppm: 100%

## CCC#CCn1cc(-c2ccc(Cl)cc2)cc(C#N)c1=O [Compound 146, 5-(4-chlorophenyl)-3-cyano-1-(2-pentyn-1-yl)-2-pyridinone]
[1]
  pest or weed control at 200 ppm: 0%
Fungal inoculum; read-out: % growth inhibition
  inhibition at 10 ppm: 5%

## CCC#CCn1nc(-c2sc3ccccc3c2Br)ccc1=O [Compound 148]
[1]
  pest or weed control at 200 ppm: 0%
Fungal inoculum; read-out: % growth inhibition
  inhibition at 10 ppm: 0%

## CCC#CCC1(CC#CCC)c2cc(Cl)ccc2-c2n[nH]c(=O)cc21 [Compound 151, 5,5'-[bis(pent-2-yn-1-yl)]-7-chloro-2,5-dihydroindeno-[1,2-c]-(2H)-pyridazin-3-one]
[1]
  pest or weed control at 200 ppm: 0%
Fungal inoculum; read-out: % growth inhibition
  inhibition at 100 ppm: 80.6%

Reference: patent US5726162A (priority 1996, dated 1998)
